# According to paper PMC5688144, “Assay interference and off-target liabilities of reported histone acetyltransferase inhibitors” (Nature Communications, 2017):
# Entries after “also recorded” stand apart in the source; their conditions may differ.
# How the values were obtained:
# AmpC β-lactamase = target: T1, AmpC β-lactamase (Escherichia coli, UniProt P00811); assay: biochemical; parameters: species or system E. coli; conditions: 10 μM compound; for AmpC aggregation counter-screen: ± 0.01% Triton X-100
# T1 construct: Recombinant E. coli AmpC (amino acids 20–377); purchased MyBioSource.com
# Method: Selected compounds were assessed for aggregation using a modified AmpC β-lactamase counter-screen[24],[32],[64]. Recombinant E. coli AmpC (amino acids 20–377) was obtained from MyBioSource.com. Testing was performed in ALARM NMR buffer (25 mM sodium phosphate, pH 7.0) in flat-bottom UV-transparent 96-well microplates in 150 μL reaction volumes. Compounds were tested in triplicate at 10 μM final concentrations in either the presence or absence of freshly-prepared 0.01% Triton X-100 (v/v). Final concentration of DMSO was 2.0% (v/v). Compounds were incubated with ~5 nM AmpC in 147 μL reaction buffer for 5 min at RT, followed by the addition of 3 μL of nitrocefin substrate (100 μM final concentration). Reaction solutions were gently mixed by pipetting up and down three times using a multichannel pipette. […] Percent activity was normalized to DMSO-only controls. Fluconazole and lidocaine were included as negative aggregation control compounds. Rottlerin was included as a positive aggregation control compound. Aggregators were defined as compounds with significant detergent-dependent changes in AmpC activity (t-test, adjusted P-value <0.05; mean differences greater than 30%). Activators were defined as compounds that increased AmpC enzymatic activity.
# p300/CBP = conditions: cited from earlier work
# [1] = Fluorescence quenching counter-screen; type: physicochemical; conditions: 10 μM fluorophore; 32 nM-100 μM compound
# Method: Selected test compounds were assessed for fluorescence quenching using adaptions of previously published procedures[9],[24]. Briefly, test compounds and individual fluorophore standards were incubated together. The fluorescence intensity of these mixtures was compared to the fluorescence intensity of the same fluorophore standards minus test compounds. Each microplate contained positive control columns (DMSO plus fixed concentration of a single fluorophore), negative control columns (DMSO), and experimental wells (test compounds plus fixed concentration of a single fluorophore). […] Final concentration of DMSO was constant at 2.0% (v/v). […] All measurements were performed in ALARM NMR buffer (25 mM sodium phosphate, pH 7.0) at 25 °C. Aliquots of 20 μL buffer were dispensed into microplate wells via ThermoFisher Multidrop dispenser. Microplates were shaken for 1 min on a plate shaker, centrifuged briefly for 1 min at 1000×g, then allowed to incubate at RT for 10 min before measuring fluorescence intensity on a SpectraMax M3 plate reader under reduced lighting. Instrument settings for each fluorophore were unchanged from the aforementioned autofluorescence studies.
# Absorbance spectra = type: physicochemical; conditions: 25 mM sodium phosphate, pH 7.0
# Method: Selected test compounds were assessed for absorption between 300 and 750 nm. Most compound absorption spectra were obtained at 100, 50, and 10 μM final compound concentrations in ALARM NMR buffer (25 mM sodium phosphate, pH 7.0). Final concentration of DMSO was constant at 2.0% (v/v). Compounds were allowed to incubate at RT in buffer for 10 min in UV-transparent polystyrene 384-well plates. Absorbance spectra were then obtained on a SpectraMax M3 or BMG Labtech CLARIOstar microplate reader at 25 °C. Significant absorbance was defined as molar absorptivity constants greater than 2000 M^−1 cm^−1 at wavelengths greater than 300 nm.
# [2] = Autofluorescence counter-screen; type: physicochemical; conditions: autofluorescence at eight fluorophore settings; 32 nM-100 μM compound
# Method: Selected test compounds were assessed for autofluorescence using an adaption of published procedures. […] Final concentration of DMSO was constant at 1.0% (v/v). Compounds and fluorophore standards were transferred as 10 mM DMSO stock solutions to 384-well black polystyrene microplates via Echo 550 dispenser. The plate arrangement was purposefully designed to minimize optical crosstalk by fluorophore standards. All measurements were performed in ALARM NMR buffer (25 mM sodium phosphate, pH 7.0) at 25 °C. Aliquots of 20 μL buffer were dispensed into microplate wells via ThermoFisher Multidrop dispenser. Compounds were shaken for 1 min on a plate shaker, centrifuged briefly for 1 min at 1000×g, then allowed to incubate at RT in buffer for 10 min before measuring fluorescence intensity on a SpectraMax M3 plate reader under reduced lighting. […] Bandwidth filters were set to default mode. Fluorescence intensity was measured for each test compound using each of the eight fluorophore standard settings. Fluorophores present on each plate were then used to construct normalized fluorescence dose-responses (“fluorophore-equivalent concentrations”, FEC). Fluorescence intensity for each test compound was converted to the appropriate FEC.
# human La antigen = target: T2, human La antigen (Homo sapiens, UniProt P05455, T302N); assay: ALARM NMR; type: binding; conditions: 400 μM compound
# T2 construct: amino acids 100–324 of the human La antigen (plus T302N mutation); 6xHis (N); 6xHis (C); host or cells: Escherichia coli Rosetta cells
# T2 sequence (P05455 100-324 T302N): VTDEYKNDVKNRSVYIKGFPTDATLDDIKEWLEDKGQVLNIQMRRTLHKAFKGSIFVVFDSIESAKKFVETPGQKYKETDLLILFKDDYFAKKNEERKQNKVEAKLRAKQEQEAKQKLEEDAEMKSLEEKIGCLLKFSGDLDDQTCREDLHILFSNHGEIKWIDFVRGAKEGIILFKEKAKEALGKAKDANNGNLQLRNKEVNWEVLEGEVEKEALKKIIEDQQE
# Excerpt: The gene encoding amino acids 100–324 of the human La antigen (plus T302N mutation) was cloned into pET28b + vector (Novagen) with both an N- and C-terminal 6xHis tag (addgene.org, plasmid ID 90209). The sequence identity of the ALARM NMR plasmid construct was verified by Sanger sequencing of the transgene region and next-generation sequencing of the whole plasmid.
# Plasmid was transformed into Escherichia coli Rosetta cells (Novagen) and cultured in M9 minimal media. The La antigen was labeled by adding ^13C-labeled amino acid precursors ([3-^13C]-α-ketobutyrate and [3,3′-^13C]-α-ketoisovalerate sodium salts; Cambridge Isotope Laboratories; 250 mg L^−1 final concentrations) to culture medium 30 min before induction with IPTG (1 mM final concentration). Bacteria were collected after incubation at 25 °C for 8 h and washed with ice-cold phosphate-buffered saline (PBS). Washed cells were lysed by French press in ice-cold lysis buffer (50 mM Tris, pH 7.6, 300 mM NaCl, 10% glycerol (v/v), 5 mM β-mercaptoethanol (BME), 5 mM imidazole, 2 mM MgCl2, benzonase, and protease inhibitor cocktail), followed by an additional brief sonication step (3 × 15 s pulse sequence) on ice. This lysed solution was centrifuged (30,000×g for 30 min, two cycles) to remove cellular debris, then loaded onto a pre-washed Ni-NTA bead column (Qiagen) kept at 4 °C and washed with buffer (50 mM Tris, pH 7.6, 300 mM NaCl, 10% glycerol (v/v), 5 mM BME, 5 mM imidazole). The La antigen was eluted with an elution buffer (50 mM Tris, pH 7.6, 300 mM NaCl, 10% glycerol (v/v), 5 mM BME, imidazole gradient ranging from 5 mM to 0.5 M). […] Aliquots were flash-frozen in liquid N2 and stored at −80 °C until further use. Before use, aliquots of ~150 μM protein were incubated in the presence of 20 mM DTT at 37 °C for 1 h, then dialyzed (25 mM sodium phosphate buffer, pH 7.0 (no DTT)) in 16 h cycles at 4 °C with constant nitrogen bubbling and with gentle stirring, for three total buffer cycles.
# For standard testing conditions, the [^1H-^13C]-HMQC spectra were acquired in 25 mM sodium phosphate buffer, pH 7.0, 10% D2O (v/v; CIL) ± 400 μM test compounds delivered from the aforementioned stock solutions, and ± 20 mM non-deuterated DTT. Final concentration of DMSO was 4.0% (v/v). Reaction solutions were mixed, then centrifuged for 5 min (1000×g) in non-binding 384-well microplates at RT, then incubated at 37 °C for 1 h and then 30 °C for 15 h before obtaining spectra. Samples were checked for evidence of gross precipitation. Data were recorded at 298 K on a Bruker UltraShield 700 MHz NMR spectrometer equipped with a Bruker 1.7 mm TCI Cryoprobe and Bruker SampleJet autosampler. Samples were tested at 50 μM protein concentrations using 16 scans, 2048 complex points in F2, and 80 points in F1 using standard protein [^1H-^13C]-HMQC and water suppression pulse sequences.
# Data were analyzed in TopSpin™ 3.5 (Bruker). Reactions were normalized to equivalent DMSO controls. Non-reactive compounds were identified by the absence of chemical shifts or changes in peak intensities (^13C-methyl) ± 20 mM DTT.
# [3] = tested on: caspase 3/7 activity in HEK293T and MCF7 cells; assay: Live-cell caspase 3/7 activity; type: cell-based; conditions: 24 h after compound addition
# Method: (§1) For cell growth analyses, cells were seeded in 96-well plates, treated with compounds for the indicated times, and monitored over time in a live cell Incucyte™ ZOOM imager (Essen Biosciences). To label apoptotic and dead cells, caspase 3/7 activatable DEVD recognition motif NucView™ 488 DNA intercalating dye (1:1000 dilution, Essen Biosciences) and SYTOX™ green nucleic acid stain (1:1000 dilution, Invitrogen) were used respectively, following manufacturer instructions.
# HEK293T and MCF7 cells [4] = assay: Membrane permeability (SYTOX green uptake); type: cell-based; conditions: for membrane permeability: Sytox green dead-cell dye uptake
# Method: as §1
# [5] = tested on: H3K27ac levels in HEK293T and MCF7 cells; assay: Cellular H3K27ac western blot; type: cell-based; conditions: 10 and 30 μM compound
# Method: (§2) Cells were cultured in DMEM supplemented with 10% fetal bovine serum (Winsent), penicillin (100 U mL^−1), and streptomycin (100 µg mL^−1). Compounds dissolved in DMSO or matching DMSO-only controls were added to cells for indicated times. Compound effects in cells were determined as described[67] and are outlined below.
# For western blot analyses, cells were lysed in lysis buffer (20 mM Tris–HCl, pH 8, 150 mM NaCl, 1 mM EDTA, 10 mM MgCl2, 0.5% Triton X-100 (v/v), 12.5 U mL^−1 benzonase (Sigma), complete EDTA-free protease inhibitor cocktail (Roche)). After 3 min incubation at RT, SDS was added to final 1% concentration (w/v). Total cell lysates were resolved in 4–12% Bis-Tris protein gels (Invitrogen) with MOPS buffer (Invitrogen) and transferred for 1.5 h (80 V) onto PVDF membrane (Millipore) in tris-glycine transfer buffer containing 20% methanol and 0.05% SDS. Blots were blocked for 1 h in blocking buffer (5% milk in 0.1% Tween 20/PBS) and incubated with respective primary antibodies: H3K27ac (1:1000, CST #8173), H3 (1:1000, Abcam #10799), p300 (1:2000, Bethyl #A300-358A), CBP (1:1000, Bethyl #A300-362A), actin (1:3000, Abcam #3280), α-tubulin (1:1000, 12G10 DHSB), and α-tubulin-K40ac (1:2000, Abcam #179484) in blocking buffer overnight at 4 °C. After five washes with 0.1% Tween 20/PBS, the blots were incubated with goat anti-rabbit IgG (IRDye 800-conjugated, LiCor #926-32211) and donkey anti-mouse IgG (IRDye 680-conjugated, LiCor #926-68072) antibodies (1:5000) in Odyssey Blocking Buffer (LiCor) for 1 h at RT and washed with 0.1% Tween 20/PBS. The signal was read on an Odyssey scanner (LiCor) at 800 and 700 nm. Representative uncropped images with molecular weight markers are provided (Supplementary Figs. 9, 12, 13).
# HEK293T and MCF7 cells [6] = assay: Cell proliferation by cell confluence; type: cell-based; conditions: 10 and 30 μM compound, 24 h
# Method: as §2, §1
structure (smiles),measurement,setting,value
"c1cc(SSc2ccns2)sn1 [Compound 2, NU-9056]",AmpC aggregation counter-screen,AmpC β-lactamase,Detergent-insensitive
same,IC50,"p300/CBP; original report, 27 (Supplementary References)",59 µM
"CCCCCCCCCCCCCCC=C(C(=O)OCC)C(=O)OCC [Compound 19, LoCAM]",Quenching counter-screen,[1],Negative
same,AmpC counter-screen result,AmpC β-lactamase; detergent-sensitive modulation,likely aggregators
same,AmpC aggregation counter-screen,AmpC β-lactamase,"Detergent-sensitive (Aggregators were defined as compounds with significant detergent-dependent changes in AmpC activity (t-test, adjusted P-value <0.05; mean differences greater than 30%))"
same,Absorption max (nm),Absorbance spectra,Nominal
same,Absorbance counter-screen,Absorbance spectra; 300-750 nm,Negative
same,Fluorescence counter-screen,[2],Negative
same,"ALARM NMR, (-) DTT",human La antigen; 0 mM DTT,Negative
same,"ALARM NMR, (+) DTT",human La antigen; DTT present,Negative
same,ALARM NMR interpretation,human La antigen; with and without DTT,Inert as tested
same,"% inhibition, p300/CBP","p300/CBP; @ 50 µM, ref 23 (Supplementary References)",74%
"O=C(O)CCSc1cc(NS(=O)(=O)c2ccc(Br)cc2)c2ccccc2c1O [Compound 24, JMC2015-6a]",caspase 3/7 activity,[3],induce; also recorded: increased
same,cytotoxicity by membrane integrity studies,"HEK293T and MCF7 cells [4]; 30 µM compound, MCF7 cells",cytotoxic
same,membrane permeability,HEK293T and MCF7 cells [4],increased
"O=[N+]([O-])c1cc(Br)c2nsnc2c1Sc1ncnc2[nH]cnc12 [Compound 26, JMC2015-2a]",caspase 3/7 activity,[3],induce; also recorded: increased
same,membrane permeability,HEK293T and MCF7 cells [4],increased
O=C1C(Cl)=C(NCCN2CCOCC2)C(=O)c2ncccc21 [NSC-663284],caspase 3/7 activity,[3],induce; also recorded: increased
same,membrane permeability,HEK293T and MCF7 cells [4],increased
same,cellular H3K27ac levels,[5],decreased H3K27ac levels
CC(=O)c1c(O)c(C)c(O)c(Cc2c(O)c3c(c(C(=O)/C=C/c4ccccc4)c2O)OC(C)(C)C=C3)c1O [Rottlerin],effect on cell proliferation (cell confluence),HEK293T and MCF7 cells [6],cytotoxic effects
same,effect on cell proliferation (cell confluence),HEK293T and MCF7 cells [6]; listed as rottlerin,anti-proliferative effects
same,cellular H3K27ac levels,[5],decreased H3K27ac levels
